The source of these data is patent US20250100947A1, “NITROUS OXIDE INHIBITOR” (His Majesty the King in Right of New Zealand Acting Through …, priority 2021, published 2025).

The structures appear in SMILES notation.

Test [1] has as its system NO3^− leaching from grazed pasture soil. Put plainly: Field lysimeter study of nitrate leaching from cow urine. The following applies: for % Reduction of leaching due to inhibitor: compared to the urine only treatment, P<0.05; for Total leaching: cow urine 600 kg N ha^−1, inhibitor applied within 1 hour, DCD at 10 kg ha^−1, urine alone 358. The method, then:
A field lysimeter study was conducted to examine the effects of albendazole sulfoxide on NO3^− leaching resulting from cow urine applied to a grazed pasture (at a loading rate of about 600 kg N ha^−1). The field lysimeter experiment was a randomized complete block design with the following treatments: • Control (no urine and no inhibitor) • Urine alone (600 kg N ha^−1) • Urine plus DCD (DCD solution at 10 kg ha^−1) • Urine plus albendazole sulfoxide (supplied by AgResearch Palmerston North)
Urine was collected from dairy cows that had been grazing an established ryegrass-white clover pasture. The cow urine was bulked and held at 4° C. for a few days prior to application. The urine was applied in a single application at an N loading rate of 600 kg N ha^−1 and a hydraulic loading rate of 10 L m^−2 to simulate dairy cow urine deposition. […] The treatments were replicated 6 times.
These urine and inhibitor treatments were also simultaneously applied to associated 0.5 m^2 plots so that soil samples could be taken throughout the trial to monitor mineral N transformations and moisture levels.
Leachate volumes were measured from the lysimeters when drainage occurred over the drainage period (May-October). Subsamples of leachate were collected and frozen at −20° C. prior to analysis for nitrate N(NO3^−N) and ammonium N(NH4^+—N) using a Skalar SAN^++ segmented auto flow analyser (Skalar Analytical B.V., Breda, Netherlands).

For test [2], the system named is N2O emissions from urine-treated pasture soil. The test is described as follows: Field trial, static chamber N2O emissions from simulated cattle urine patches. The following applies: for Net emitted: control subtracted. From the text: A trial site was fenced off and stock excluded for about 14 weeks, until the commencement of the field trials, to avoid interference from fresh dung and urine inputs and reduce spatial heterogeneity/variability from the previous uneven deposition of dung and urine.
Approximately two weeks before the commencement of the trial, pasture was mown to 50 mm height, 4 soil samples (to 100 mm depth) were collected for physicochemical characterisation and Field plots were established in a randomised complete block design with 5 treatments as shown in Table 1. Plot size was 2.5×2.5 m for all treatments with an additional buffer area of at least 0.5 m between adjacent plots.
Natural urine deposition was simulated with 2 L cattle urine (containing 8.35 g N L^−1) in large static chambers allowing for urine edge-effect. All solutions containing a N2O inhibitor were applied at the same rate (30 mL/Chambers; 600 L/ha). For all urine treatments, 2 L urine was poured to the central point of the chamber base area at a height of approximately 1.2 m and allowed to spread naturally. To mimic the “Spikey®” urine patch treatment, a spot-sprayer system (supplied by Pastoral Robotics Limited) was used for treating the urine patch in the large chambers. All the inhibitor compositions were applied to the relevant treatments within 4 h after urine application.
A static chamber technique was used to measure N2O emissions, and the methodology was based on that used in a previous published study on N2O emissions (Luo et al 2015). One week before the trial began, static chamber bases (80 cm diameter) were inserted into the soil. Herbage within the chamber base and the ring areas was cut to 50 mm above ground level before the application of the treatments.
Pre-treatment gas flux was taken from each chamber a day before the application of treatments to determine the spatial variability of background of N2O flux between the plots and to assist with interpretation of patterns of N2O flux from individual sampling plots post treatment application as a covariate for statistical analysis of post-treatment emissions.
Post treatment gas measurements were carried out at 2, 24 and 72 h after application of the urine and inhibitor compositions, twice a week for the first 8 weeks and thereafter weekly. The measurements were continued until the N2O flux values for treatment plots reached the background levels measured in the control plots. During weekly phases of N2O flux measurement, additional sampling occurred as soon as practical following rainfall events of greater than 10 mm of rain in the previous 24 h. On each sampling day, N2O measurements were carried out between 1000 and 1200 h. Gas samples from chamber headspace were taken during a cover period of 100 minutes at times t0, […] (or similar). Two background atmosphere samples were also taken on each sampling day at each site. […] The measurements of N2O emission from the treatment plots continued until the first week of September. During this period, 3 pasture harvests were taken, and herbage samples analysed for N content.
Nitrous oxide concentration of gas samples were analysed by gas chromatograph using a Shimadzu GC-17a gas chromatograph equipped with a 63Ni-electroncapture detector (oven, valve and detector temperatures were operated at 65, 100 and 280° C., respectively, using oxygen-free N as a carrier gas and connected to an automatic sampler capable of handling up to 120 samples, and a SRI 8610 automated gas chromatograph. Chamber temperatures were recorded at the beginning and end of the cover period and the average of the two readings were considered the chamber temperature for calculating gas flux. The increase in N2O concentration within the chamber headspace, for the gas samples collected at t0, t50 and t100 was generally linear (R2>0.90). Therefore, the hourly N2O fluxes will be calculated using linear regression and the ideal gas law according to Equation 1: […]

The test system of test [3] is soil potential denitrification (DEA) enzyme activity. Put plainly: Soil denitrification enzyme activity (DEA) short-term incubation. The format is biochemical. As for the experimental part: Short-term incubation studies were conducted to determine the effect of the compound of the invention on soil potential denitrification (DEA) enzyme activity. Details of each assay are described in Zhong et al. (2015, 2016).
The denitrification assay involved testing the effect of five ALBSO treatments: 0 (water only), carrier (formic acid only), low (0.011 μg ALBSO g^−1 dry soil), high (0.046 μg ALBSO g^−1 dry soil) and very high (0.91 μg ALBSO g^−1 dry soil) at a common N rate delivered as KNO3.
The ALBSO treatments were formulated with an absolute minimum amount of formic acid needed to just dissolve the required amount of ALBSO into solution. Identical amounts of formic acid were used to formulate the carrier, low, high and very high ALBSO treatments, with the carrier containing only formic acid and water. The pH of carrier, low, high and very high ALBSO treatment solutions was identical and mildly acidic.
After a 4-hour incubation period, N2O concentrations were lower (P<0.008) for incubation vessels that had been treated with ALBSO. […] Typically, results for this kind of incubation become unreliable after 6 hours, however, the 8 hour sampling in case the high level of N addition allowed for a longer period of microbial activity.
A further incubation was performed to test the effect of the carrier as well as the high rate of ALBSO on denitrification enzyme activity.
The final incubation included a treatment where acetylene was not added. The use of acetylene gives further information on whether the ALBSO effect on denitrification is due to effects on enzymes linked to nirK and nirS (with acetylene) or nosZ (without acetylene) genes. […] Letters refer to ALBSO effects within acetylene treatments (LSD 5.3, n=3).

Setting [4] is: Urine + high concentration ALBSO (900 μg), UA1.
Setting [5] is: Urine + low concentration ALBSO (266 μg), UA2.

On to `CCC[S+]([O-])c1ccc2[nH]c(NC(=O)OC)nc2c1` (stereo not drawn) [ALBSO, methyl [5-(propane-1-sulfinyl)-1H-benzoimidazol-2-yl]-carbamate], for which, in test [1], the “% Reduction of leaching due to inhibitor” value was found to be 20%. In test [1], the Total leaching worked out at 289 kg NO3^−—N ha^−1. Also, the Total emitted in test [2] (Urine 2 L + high concentration ALBSO (900 μg in 0.054M formic acid), UA1, cumulative over 4 months) was 3703 g N2O—N; in test [2] (Urine 2 L + low concentration ALBSO (266 μg in 0.054M formic acid), UA2, cumulative over 4 months) it was 3147 g N2O—N. Besides, the “EF3 (% of applied N emitted)” value in test [2] (setting [4]) is given as 0.84 % of applied N emitted; in test [2] (setting [5]) it was 0.68 % of applied N emitted. The Net emitted is 2807 g N2O—N in test [2] (setting [4]) and 2251 g N2O—N in test [2] (setting [5]). In addition, in test [2] (urine treated with low concentration ALBSO composition), the “Emissions from treated urine” value is on record as 3147 g N2O—N ha^−1. The “ppm N2O after 4 h” value in test [3] (High (0.046 μg ALBSO g^−1 dry soil), first incubation, n=3, H2O 138) is 102 ppm N2O; in test [3] (High rate of ALBSO, further incubation with carrier, n=4, H2O 97), 90 ppm N2O; in test [3] (Low (0.011 μg ALBSO g^−1 dry soil), first incubation, n=3, H2O 138), 96 ppm N2O; in test [3] (Very High (0.91 μg ALBSO g^−1 dry soil), first incubation, n=3, H2O 138), 86 ppm N2O. For the same compound, the “ppm N2O after 8 h” value was found to be 217 ppm N2O in test [3] (High (0.046 μg ALBSO g^−1 dry soil), first incubation, H2O 236); 131 ppm N2O in test [3] (High rate of ALBSO, further incubation with carrier, n=4, H2O 137); 233 ppm N2O in test [3] (Low (0.011 μg ALBSO g^−1 dry soil), first incubation, H2O 236); 232 ppm N2O in test [3] (Very High (0.91 μg ALBSO g^−1 dry soil), first incubation, H2O 236). In addition, in test [3] (High ALBSO, final incubation, n=3, Acetylene No, H2O 97.3), the “N2O concentration after 4-hour incubation, acetylene not added” value was found to be 84.7a ppm N2O. Moreover, the “N2O concentration after 4-hour incubation, acetylene added” value in test [3] (High ALBSO, final incubation, n=3, Acetylene Yes, H2O 96.9) turned out to be 90.9a ppm N2O. Also, the “N2O concentrations after 4-hour incubation, treated vs untreated vessels” value in test [3] (all ALBSO amounts, P<0.008, 28° C., anaerobic) is given as “lower”. In test [3] (final incubation, P=0.005), the “Effect on reducing N2O over both acetylene treatments” value is on record as “significant effect of ALBSO on reducing N2O”.

Take `N#CN=C(N)N` [DCD, dicyandiamide, reference compound]: in test [1], the “% Reduction of leaching due to inhibitor” value was 30% and the Total leaching turned out to be 253 kg NO3^−—N ha^−1. The Total emitted in test [2] (Urine 2 L (16.70 g N) + DCD (0.25 g N), UDCD, cumulative over 4-month measurement period) is 3142 g N2O—N. In test [2] (Urine + DCD (0.25 g N), UDCD), the “EF3 (% of applied N emitted)” value was 0.67 % of applied N emitted and the Net emitted was 2246 g N2O—N. The “Emissions from treated urine” value in test [2] (urine treated with DCD) is on record as 3142±300 g N2O—N ha^−1.
